As a reminder, the IC50 is the concentration needed to halve the response being measured. One may read the Km as the substrate concentration at which the rate is half of its maximum. In general, kcat refers to the number of substrate molecules converted per active site and unit of time at saturation.

Some results are limits rather than exact numbers.

The record followed here is US6420131B1, “Use of fluorescein aryl ethers in high throughput cytochrome P450 inhibition assays” (Gentest Corporation, priority 1999, dated 2002).

For data set [1], the system named is panel of Human P450 enzymes. Put plainly: Specificity of dealkylation of CMFDE and MF by a panel of human P450 enzymes. The class given is biochemical. The note with it: CYP1A1 and CYP2C19; 1 uM substrate.
For data set [2], the target named is T1, human CYP3A4 (Homo sapiens, UniProt P08684). The following applies: for Range: human.
T1 sequence (P08684 whole entry): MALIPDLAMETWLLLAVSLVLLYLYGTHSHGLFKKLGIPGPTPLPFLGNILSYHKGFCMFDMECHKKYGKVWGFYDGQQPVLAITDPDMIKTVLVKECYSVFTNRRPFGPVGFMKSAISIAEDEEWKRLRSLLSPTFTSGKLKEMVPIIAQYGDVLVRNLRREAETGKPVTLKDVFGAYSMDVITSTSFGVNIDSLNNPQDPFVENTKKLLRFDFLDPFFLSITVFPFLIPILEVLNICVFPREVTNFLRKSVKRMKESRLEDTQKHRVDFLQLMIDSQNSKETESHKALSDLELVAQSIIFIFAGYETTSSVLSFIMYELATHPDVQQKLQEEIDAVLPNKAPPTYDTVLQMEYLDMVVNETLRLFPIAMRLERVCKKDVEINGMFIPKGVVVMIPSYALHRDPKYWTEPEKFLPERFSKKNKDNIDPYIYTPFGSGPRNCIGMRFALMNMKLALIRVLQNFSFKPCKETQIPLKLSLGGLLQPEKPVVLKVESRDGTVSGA
The target in data set [3] is T1, human CYP3A4. Put plainly: High throughput cytochrome P450 inhibition screen, CYP3A4. The following applies: Absolute Mean IC50 Values.
For data set [4], the system named is panel of Human P450 enzymes. Put plainly: Substrate specificity, dealkylation of Compounds Ia and Ib by a panel of human P450 enzymes. The format is biochemical. The note with it: various P450s. Here is the method:
The specificity of several cytochrome P450 enzymes for the dealkylation of Compound Ia (FIG. 1) and Compound Ib (FIG. 2) was examined.
Example Compounds Ia and Ib. […] Final incubation volume was 0.2 ml.

Data set [5] deals with T2, CYP2C8 (Homo sapiens, UniProt P10632).
T2 sequence (P10632 1-490): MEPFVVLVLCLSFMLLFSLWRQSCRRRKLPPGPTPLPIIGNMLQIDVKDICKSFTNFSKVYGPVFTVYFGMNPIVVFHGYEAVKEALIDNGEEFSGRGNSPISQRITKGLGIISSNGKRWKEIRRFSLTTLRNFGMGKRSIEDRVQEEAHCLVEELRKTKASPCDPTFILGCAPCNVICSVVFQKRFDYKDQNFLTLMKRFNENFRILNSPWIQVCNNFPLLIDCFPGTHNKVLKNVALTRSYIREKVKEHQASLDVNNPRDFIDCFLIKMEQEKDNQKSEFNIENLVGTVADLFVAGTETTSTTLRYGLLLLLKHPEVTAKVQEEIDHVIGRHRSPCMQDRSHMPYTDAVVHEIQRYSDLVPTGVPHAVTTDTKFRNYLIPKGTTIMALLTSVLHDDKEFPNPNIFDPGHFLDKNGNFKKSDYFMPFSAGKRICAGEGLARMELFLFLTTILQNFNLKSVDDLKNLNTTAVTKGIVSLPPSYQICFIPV
Kind of data set: High throughput cytochrome P450 inhibition screen, CYP2C8, compound Ia as substrate.

In data set [6] the target is T2, CYP2C8.
For a further data set, the target named is T3, Rat CYP2D2 (Rattus norvegicus, UniProt P10634).
T3 sequence (P10634 1-500): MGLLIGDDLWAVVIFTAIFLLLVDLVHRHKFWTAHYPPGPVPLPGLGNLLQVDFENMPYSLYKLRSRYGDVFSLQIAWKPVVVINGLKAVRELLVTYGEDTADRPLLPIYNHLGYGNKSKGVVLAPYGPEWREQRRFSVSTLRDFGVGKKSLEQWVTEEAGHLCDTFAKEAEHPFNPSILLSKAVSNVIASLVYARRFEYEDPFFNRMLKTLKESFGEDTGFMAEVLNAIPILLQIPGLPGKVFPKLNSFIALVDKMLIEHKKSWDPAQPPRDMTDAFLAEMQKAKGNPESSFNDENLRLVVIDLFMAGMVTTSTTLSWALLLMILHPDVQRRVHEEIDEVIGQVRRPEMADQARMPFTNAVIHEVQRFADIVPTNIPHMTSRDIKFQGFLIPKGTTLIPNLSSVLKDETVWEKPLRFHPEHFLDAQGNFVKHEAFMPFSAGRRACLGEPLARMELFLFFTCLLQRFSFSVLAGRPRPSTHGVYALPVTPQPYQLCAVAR
Put plainly: Turnover of fluorometric substrates by rat CYP2D2.

The next data set addresses T4, Rat CYP1A1 (Rattus norvegicus, UniProt P00185).
T4 sequence (P00185 1-524): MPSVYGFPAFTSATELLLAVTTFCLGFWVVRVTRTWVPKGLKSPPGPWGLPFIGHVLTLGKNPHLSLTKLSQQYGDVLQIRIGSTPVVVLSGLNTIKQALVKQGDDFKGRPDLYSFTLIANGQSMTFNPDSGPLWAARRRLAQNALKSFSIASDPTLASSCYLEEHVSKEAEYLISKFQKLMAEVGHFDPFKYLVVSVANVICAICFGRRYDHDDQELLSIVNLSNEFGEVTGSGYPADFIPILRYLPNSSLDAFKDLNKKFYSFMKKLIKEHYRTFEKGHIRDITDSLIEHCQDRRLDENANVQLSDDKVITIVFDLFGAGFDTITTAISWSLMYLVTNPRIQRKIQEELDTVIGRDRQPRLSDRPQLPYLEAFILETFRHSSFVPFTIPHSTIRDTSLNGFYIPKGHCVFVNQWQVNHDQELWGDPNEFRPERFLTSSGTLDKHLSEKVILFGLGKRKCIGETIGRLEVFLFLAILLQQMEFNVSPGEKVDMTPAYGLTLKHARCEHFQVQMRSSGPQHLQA
Kind of data set: Turnover of fluorometric substrates by rat CYP1A1. The note with it: substrate uM: Ia 2, AMMC 20, CEC 40, MFC 50, BFC 50, BQ 40, BzRes 50; 30 min; enzyme 50 nM (2.5 nM for CEC).

Substrate in data set [7]: O=C(OCc1ccccc1)c1ccccc1-c1c2ccc(=O)cc-2oc2cc(OCc3ccccc3)ccc12
Put plainly: Enzyme kinetics of substrate turnover by cDNA-expressed CYP2C8. The class given is biochemical, human. The note with it: other: CYP2C8. Here is the method: The evaluation of compounds of Formula I were performed by measuring the kinetics of turnover using cDNA-expressed cytochromes P450 CYP3A4 and CYP2C8. Vmax and Km values are important for the optimization of the assay conditions and for setting the parameters for inhibition experiments.
Example Compound Ia. […] Final incubation volume was 0.2 ml. […] The activity was quantitated by comparing to a standard curve of fluorescein. Apparent Km and Vmax values were calculated by non-linear regression using SigmaPlot software.

`COc1ccc2c(c1)Oc1cc(O)ccc1C21OC(=O)c2ccccc21` (centres unmarked) [MF, 3-O-methylfluorescein]: the “substrate quality based on turnover number” value in [1] was “good P450 substrate”.

At human CYP3A4 [2], `Clc1ccccc1C(c1ccccc1)(c1ccccc1)n1ccnc1` [Clotrimazole] came in with a Range of 7.9. Take `CC[C@H]1OC(=O)[C@H](C)[C@@H](O[C@H]2C[C@@](C)(OC)[C@@H](O)[C@H](C)O2)[C@H](C)[C@@H](O[C@@H]2O[C@H](C)C[C@H](N(C)C)[C@H]2O)[C@](C)(O)C[C@@H](C)C(=O)[C@H](C)[C@@H](O)[C@]1(C)O` [Erythromycin]: the IC50 was 4.5 µM on human CYP3A4 [3] (BFC, substrate BFC); 54.4 µM at human CYP3A4 [3] (BQ, substrate BQ); 1.8 µM at human CYP3A4 [3] (BzRes, substrate BzRes); 21.5 µM at human CYP3A4 [3] (Overall, mean over the substrates BzRes, BQ, BFC, Ia). With `O=C(O)c1ccccc1-c1c2ccc(=O)cc-2oc2cc(OCc3ccccc3)ccc12` [Compound Ib, Monobenzyl Fluorescein], the “signal as a substrate” value in [4] is reported as “substantially less signal versus Compound Ia”. With `CC(=O)O[C@H]1C(=O)[C@@]2(C)[C@H]([C@H](OC(=O)c3ccccc3)[C@]3(O)C[C@H](OC(=O)[C@H](O)[C@@H](NC(=O)c4ccccc4)c4ccccc4)C(C)=C1C3(C)C)[C@]1(OC(C)=O)CO[C@@H]1C[C@@H]2O` [paclitaxel], on CYP2C8 [5], the “inhibition of the turnover of compound Ia” value is on record as “inhibited the turnover of compound Ia”. `NC(=O)N1c2ccccc2C=Cc2ccccc21` [Carbamazepine] returned a Range on human CYP3A4 [2] of 5.3. Regarding `Nc1ccc(S(=O)(=O)Nc2ccnn2-c2ccccc2)cc1` [sulfaphenazole], at CYP2C8 [6], the 50% inhibitory concentration (IC50) result is given as “elevated”. At human CYP3A4 [2], `COCC(=O)O[C@]1(CCN(C)CCCc2nc3ccccc3[nH]2)CCc2cc(F)ccc2[C@@H]1C(C)C` [Mibefradil] registered a Range of 12. Take `Clc1ccc(COC(Cn2ccnc2)c2ccc(Cl)cc2Cl)c(Cl)c1` (centres unmarked) [Miconazole]: the Range at human CYP3A4 [2] came out at 11. Consider `CC(=O)[C@H]1CC[C@H]2[C@@H]3CCC4=CC(=O)CC[C@]4(C)[C@H]3CC[C@]12C` [Progesterone], for which the IC50 on human CYP3A4 [3] (BQ, substrate BQ) was > 200 µM. Besides, it took 11.5 µM to reach half-maximal inhibition against human CYP3A4 [3] (Ia, substrate compound Ia) (IC50). Also, at human CYP3A4 [2], the “Absolute Mean IC50 Values, BFC” value is on record as “Activation” and the “Absolute Mean IC50 Values, BzRes” value is given as “Activation”. `CC[N+](C)(CC)CCc1c(C)c2ccc(OC)cc2oc1=O` [AMMC, 3-[2-(N,N-Diethyl-N-methylamino)ethyl]-7-methoxy-4-methylcoumarin] showed a substrate utilization on Rat CYP2D2 (CYP2D2/AMMC, conditions of Table VI) of 45%. Further, the “Turnover Numbers, CYP2D2” value at Rat CYP2D2 (substrate uM: Ia 2, AMMC 20, CEC 40, MFC 50, BFC 50, BQ 40, BzRes 50, 30 min, enzyme 50 nM) is on record as 5.9 pmol product/min/pmol enzyme. Also, at Rat CYP1A1, the “Turnover Numbers, CYP1A1” value is recorded as “—^b”. As to `Cc1ncc2n1-c1ccc(Cl)cc1C(c1ccccc1F)=NC2` [Midazolam], the Range at human CYP3A4 [2] stood at 48.

Consider `C#C[C@]1(O)CC[C@H]2[C@@H]3CCc4cc(O)ccc4[C@H]3CC[C@@]21C` [Ethynylestradiol], for which the Range on human CYP3A4 [2] worked out at 4.5.

B1: CYP2C8 (Homo sapiens) (protein)
chain: MEPFVVLVLCLSFMLLFSLWRQSCRRRKLPPGPTPLPIIGNMLQIDVKDICKSFTNFSKVYGPVFTVYFGMNPIVVFHGYEAVKEALIDNGEEFSGRGNSPISQRITKGLGIISSNGKRWKEIRRFSLTTLRNFGMGKRSIEDRVQEEAHCLVEELRKTKASPCDPTFILGCAPCNVICSVVFQKRFDYKDQNFLTLMKRFNENFRILNSPWIQVCNNFPLLIDCFPGTHNKVLKNVALTRSYIREKVKEHQASLDVNNPRDFIDCFLIKMEQEKDNQKSEFNIENLVGTVADLFVAGTETTSTTLRYGLLLLLKHPEVTAKVQEEIDHVIGRHRSPCMQDRSHMPYTDAVVHEIQRYSDLVPTGVPHAVTTDTKFRNYLIPKGTTIMALLTSVLHDDKEFPNPNIFDPGHFLDKNGNFKKSDYFMPFSAGKRICAGEGLARMELFLFLTTILQNFNLKSVDDLKNLNTTAVTKGIVSLPPSYQICFIPV
notes: purchased GENTEST Corporation; host or cells: baculovirus/insect cells (microsomes, SUPERSOMES)
Take B1: in data set [7], the Km turned out to be 1.4 µM and the catalytic constant (kcat) is 0.00367 s⁻¹.
